Patent publication US12673959B2, “Polysubstituted imidazolo[4,5-c][1,2]thiazine derivative and use thereof” (KYUNGPOOK NATIONAL UNIVERSITY INDUSTRY-ACADEMIC COOPERATION …, priority 2020, dated 2026)

Test system: CLP-induced sepsis mouse model
Assay: Survival rate in cecal ligation and puncture (CLP)-induced sepsis mouse model
Assay type: in vivo
Settings: ICR male mice; compound administered intravenously into tail 12 hours and 50 hours after surgery; FIG. 1
Protocol: The anti-inflammatory efficacy of the prepared compound was tested by the survival rate of peritonitis-induced sepsis mouse model. CLP-induced sepsis mouse models were prepared by in vivo methods to verify anti-inflammatory activity, and the preparation method is a widely used experimental method [Wang H, Nat. Med., 2004, 10, 1216-1221]. Forty 6-week-old ICR male mice were divided into 10 mice in each group and the survival rate was observed.
First, the male mice were given respiratory anesthesia using isoflurane, an incision of about 2 cm was made in the middle of the abdomen to take out the appendix adjacent to the intestine, a 5.0. mm portion from the tip of the appendix was ligated with a 3.0-silk suture and pierced once with a 22-gauge needle, and then the incision was closed again with a 4.0-silk suture. Sham mice were sutured without tying or piercing the appendix after incision, and the compound prepared 12 hours and 50 hours after surgery was administered intravenously into mouse tail.

CCN1c2nc(N3CCCC3)n(C)c2C(=O)C(c2ccc(Cl)cc2)S1(=O)=O (stereo not shown) [Compound 1-42, 3-(4-chlorophenyl)-1-ethyl-5-methyl-6-(pyrrolidin-1-yl)-3,5-dihydroimidazo[4,5-c][1,2]thiazine-4(1H)-one 2,2-dioxide]
survival rate of the CLP-induced sepsis mouse model increased compared to a group of which only CLP was performed: 60%
